According to publication PMC12068008 (International Journal of Molecular Sciences, 2024):

How the values were obtained:
[1] = Metal-chelating assay, binding stoichiometry (molar ratio method), Zn2+; format: physicochemical; conditions: ethanol, 30 min, compound 5 × 10^−5 M, one ion coordinates with two molecules
Experimental: (§1) Binding stoichiometry was determined using the molar ratio method, with increasing concentrations of metal ions (from 0 to 1.5 × 10^−4 M) (Figures S1 and S2). Absorption spectra were collected 30 min after mixing. The change in absorption at the wavelength of maximum absorbance for the formed complex was plotted against the metal ion (M^2+ = Cu^2+, Zn^2+, and Fe^2+) to compound ratio (cM^2+/ccompound) and is presented in Figure 3. This graph allows the determination of the binding ratio between the newly synthesized compounds and metal ions. […] In contrast, the results for Fe^2+ indicate that only one Fe^2+ ion can bind to both compounds.
(§2) The metal-chelating ability of synthesized compounds in ethanol was assessed using UV/Vis spectrophotometer (Lambda 35, Perkin Elmer) recording spectra over a wavelength range of 230–600 nm in a 1 cm quartz cell. The mixture of compound at 5 × 10^−5 M of final concentration and metal ions at 1 × 10^−4 M of final concentration was incubated for 30 min at room temperature. The tested temperature was 25 °C. […]
(§3) The binding stoichiometry was assessed by adding increasing concentrations of metal ions (0–1.5 × 10^−4 M) to a fixed concentration of compound (5 × 10^−5 M) and incubating the mixture for 30 min at room temperature. The spectra were then measured as described above, and the ligand-to-metal chelation ratio in the complex was calculated.

eqBuChE = eqBuChE (Equus caballus, UniProt P81908); assay: BuChE inhibition (Ellman's procedure); format: biochemical; conditions: 37 °C; for IC50: read-out: IC50 BChE; for inhibition at 100 µM: at 1 × 10^−4 M, read-out: Percentage Inhibition BuChE
Experimental: The abilities of compounds to inhibit AChE and BuChE activity were determined following Ellman’s procedure, with AChI and BuChI as the enzyme substrate, respectively, and DTNB as a chromogenic reagent. AChE’s and BuChE’s working solutions were prepared at 20 mM TRIS and deionized water, respectively. AChI and BuChI solutions were prepared in deionized water. A 0.01 M DTNB solution was prepared with 0.1 M phosphate buffer (pH 7) containing 0.15% (w/v) sodium bicarbonate. Stock solutions (10 mM) of investigated compounds were prepared daily by dissolving solid compounds in DMSO. The reaction mixture containing phosphate buffer, DTNB, enzyme, and compound was preincubated 30 min at 37 °C. After the preincubation time, the enzyme reaction was initiated by adding appropriate substrate and left to incubate for 6 min. After incubation, 0.1 M SDS was added to stop the reaction. Absorbance measurements were performed using a UV/Vis spectrophotometer (Lambda 35, Perkin Elmer), measuring absorbance at 412 nm. A blank assay, containing all components except the enzyme, was used to account for non-enzyme reactions. The control solution contained all components except the inhibitor. All experiments were conducted in triplicate, and the results are expressed as the mean percentage enzyme activity compared to the control value. IC50 values were determined graphically using Origin 9 Microsoft Windows.

[2] = Metal-chelating assay, binding stoichiometry (molar ratio method), Cu2+; format: physicochemical; conditions: ethanol, 30 min, compound 5 × 10^−5 M, one ion coordinates with two molecules
Experimental: as §1, §2, §3

MDA-MB-468 cells = assay: SRB assay, MDA-MB-468 cells; format: cell-based, human; conditions: for IC50: Homo sapiens, MDA-MB-468, 72 h after treatment, SRB, read-out: IC50 MDA-468
Experimental: Two human breast cancer cell lines, MDA-MB-231 (HTB-26) and MDA-MB-468 (HTB-132), human cervical cancer cell line HeLa (CCL-2), and MRC-5 (CCL-171) fibroblasts were purchased from the American Type Culture Collection (ATCC, Manassas, VA, USA). All cell lines were cultured in Dulbecco’s Modified Eagle’s Medium (DMEM) with 4500 mg/L glucose and L-glutamine (Capricorn Scientific, Ebsdorfergrund, Germany), supplemented with 10% foetal bovine serum (PAN-Biotech, Aidenbach, Germany), 10,000 U/mL penicillin, and 10 mg/mL streptomycin solution (Capricorn Scientific) under standard conditions at 37 °C in a humidified 5% CO2 atmosphere (ESCO, Lifesciences Group, Singapore).
Cells were seeded on a 96-well plate (Thermo Fisher Scientific, Waltham, MA, USA) at 2 × 10^3 cells per well in DMEM medium. For the analysis of the concentration- and time-dependent effect of the analysed compounds, cell monolayers were treated 24 h after seeding with concentrations 1 × 10^−6, 1 × 10^−5, and 1 × 10^−4 M for 24, 48, or 72 h. Cell viability was detected using sulforhodamine B (SRB) assay, based on the staining of cellular proteins. The assay was performed according to the procedure described by Skehan et al.. The cells were fixed with 10% trichloroacetic acid (TCA, CARLO ERBA Reagents GmbH, Emmendingen, Germany) for 1 h at 4 °C, washed with water, and stained for 15 min with 0.4% SRB (Sigma-Aldrich Chemie GmbH, Steinheim, Germany) in 1% acetic acid. The unbound SRB dye was rinsed with 1% acetic acid, while the protein-bound dye was extracted with a 10 mM Tris base (Sigma-Aldrich). The absorbance was measured at 550 nm with a reference wavelength of 690 nm in a microplate reader (Wallac, VICTOR2 1420 Multilabel counter, PerkinElmer, Turku, Finland). The results were expressed as a percentage of the control, where the cell growth of the control is set to 100%. IC50, defined as the concentration that caused a 50% loss of cell growth, was calculated by non-linear regression analysis with the ED50plus v1.0 software. The selectivity index (SI) was determined according to the following formula:(2) SI=IC50 for fibroblast cell line/IC50 for tumour cell line
The assay was performed two times in 4 replicates for every experimental group. The statistical significance of differences between treated and untreated cells was estimated by the independent Student’s t-test, with the level of significance set at p < 0.05.

[3] = DPPH radical scavenging assay; conditions: 30 min incubation, 25 °C
Experimental: DPPH (2,2-diphenyl-1-picrylhydrazyl) radical scavenging assay was used to assess free-radical scavenging activity of synthesized compounds. Initially, 1 × 10^−4 M working solution of DPPH was prepared, and 350 µL was added to 350 µL of the solution of each compound. The final concentrations of the compounds (Q, 2a, and 2b) in the samples were 1 × 10^−3 M, 1 × 10^−4 M, and 1 × 10^−5 M. The control included ethanol only and DPPH–ethanol solution without compounds. The mixtures were incubated at 25 °C in the dark for 30 min. After incubation, the absorbance of the samples at 517 nm was measured in duplicate by using a UV/Vis spectrophotometer (Lambda 35, Perkin Elmer, Waltham, MA, USA). The DPPH radical scavenging ability was calculated using the following equation:(1) Antioxidative activity(%)=Acontrol−Asample/Acontrol×100% where Asample and Acontrol represent the absorbance at 517 nm of the sample and control, respectively. All samples were analysed in duplicate.

Sequence of eqBuChE (P81908 whole entry): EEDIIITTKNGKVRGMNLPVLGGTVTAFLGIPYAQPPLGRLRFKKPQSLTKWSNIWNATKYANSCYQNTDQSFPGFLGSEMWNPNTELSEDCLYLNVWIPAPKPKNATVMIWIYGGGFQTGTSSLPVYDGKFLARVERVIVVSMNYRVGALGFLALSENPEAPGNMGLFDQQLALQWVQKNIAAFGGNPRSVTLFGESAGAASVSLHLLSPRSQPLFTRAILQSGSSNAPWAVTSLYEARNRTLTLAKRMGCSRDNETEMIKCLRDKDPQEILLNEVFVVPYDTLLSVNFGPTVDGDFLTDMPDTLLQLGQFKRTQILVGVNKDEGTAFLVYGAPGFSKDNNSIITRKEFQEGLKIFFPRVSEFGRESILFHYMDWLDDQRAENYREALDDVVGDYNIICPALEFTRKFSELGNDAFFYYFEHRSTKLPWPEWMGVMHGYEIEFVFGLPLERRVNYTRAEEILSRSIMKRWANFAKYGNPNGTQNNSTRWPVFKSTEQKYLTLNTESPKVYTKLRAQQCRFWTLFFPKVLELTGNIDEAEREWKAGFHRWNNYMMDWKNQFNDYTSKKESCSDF

| Structure (SMILES) | binding stoichiometry Zn^2+ [1] | IC50 (eqBuChE) [µM] | inhibition at 100 µM (eqBuChE) [%] | binding stoichiometry Cu^2+ [2] | IC50 (MDA-MB-468 cells) [µM] | IC50 [3] [µM] | highest inhibition of MDA-468 cells (MDA-MB-468 cells; highest concentration, 72 h) [%] |
| --- | --- | --- | --- | --- | --- | --- | --- |
| O=c1c(O)c(-c2ccc(O)c(O)c2)oc2c(CN3CCc4ccccc4C3)c(O)cc(O)c12 [Compound 2a] | 2 | 16.9 | 70 | 2 | > 200 | 1.59 | – |
| COc1cc2c(cc1OC)CN(Cc1c(O)cc(O)c3c(=O)c(O)c(-c4ccc(O)c(O)c4)oc13)CC2 [Compound 2b] | 2 | 41.1 | 67.6 | 2 | 109 ± 5 | 10.2 | 56.56 |
